# Like-named read-outs stand apart in the source and are kept apart here.
# What was measured:
# [1] = molecular target: T1, calf intestinal adenosine deaminase (Bos taurus, UniProt P56658); experiment: Metabolism by adenosine deaminase (spectrophotometric deamination, Lineweaver-Burke); format: biochemical
# T1 sequence (P56658 1-363): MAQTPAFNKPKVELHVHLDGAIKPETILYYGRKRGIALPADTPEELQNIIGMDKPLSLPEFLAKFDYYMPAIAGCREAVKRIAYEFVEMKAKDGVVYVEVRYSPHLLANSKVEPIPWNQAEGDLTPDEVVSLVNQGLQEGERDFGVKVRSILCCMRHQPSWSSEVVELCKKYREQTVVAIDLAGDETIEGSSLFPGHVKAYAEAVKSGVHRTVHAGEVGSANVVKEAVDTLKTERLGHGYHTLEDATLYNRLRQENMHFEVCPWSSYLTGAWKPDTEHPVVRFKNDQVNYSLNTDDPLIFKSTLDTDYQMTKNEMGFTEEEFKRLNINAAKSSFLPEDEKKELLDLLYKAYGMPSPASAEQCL
# Experimental: ^1 The indicated nucleosides at concentrations from 5-200 uM were
# incubated at 18-20° C. with 0.01 EU/ml calf intestinal adenosine
# deaminase in 10 mM sodium phosphate, pH 7.5. Deamination was monitored
# spectrophotometrically at 265 nanometers (nm) and 250 nm, as described
# The individual nucleosides, at concentrations from 5-200 uM in 10 mM sodium phosphate, pH 7.5, were incubated at 18-20 degrees C. with 0.01 EU/ml calf intestinal adenosine deaminase. The change in the optical density at 265 nm and 250 nm was monitored spectrophotometrically.
# HIV in MDM cells = experiment: Synthesis of HIV p24 (gag) antigen in monocyte derived macrophages (MDM), 3-day assay; format: cell-based; conditions: 0.1-100 uM
# Excerpt: The ability of AZT, ddC and ddA to inhibit synthesis of the p24 (gag) antigen of HIV in CEM and MDM cells was also examined. For CEM cells, the results for all three compounds were similar to those discussed in Mitsuya et al. (1987) Nature, 325:773-778 with ddC providing the most inhibitory effect at the lowest concentration, followed by AZT, followed by ddA in a 3-day assay.
# uninfected ATH8 cells = conditions: normal, read-out: Dose required to reduce the viability by 50 percent; cited from earlier work
# HIV in ATH8 cells = conditions: HIV-infected ATH8 cells; read-out: Concentration providing a 50 percent protection level against the cytopathic effect of HIV; cited from earlier work
# [2] = tested on: HIV in PHA-stimulated lymphocytes; experiment: HIV-infected PHA-stimulated lymphocytes, antigen ELISA of supernate, positive cultures; format: cell-based; conditions: 10 uM, ten cultures, ELISA OD490
# Experimental: The activities of 2-halo-2',3'-dideoxyadenosine (2-F-,2-Cl- or 2-Br-ddA) derivatives were compared to those of 2-fluoro- and 2-chloro-2',3'-dideoxyinosine (2-F- and 2-Cl-ddI) and 2',3-dideoxyadenosine (ddA) against HIV-infected, antigen ELISA assay described herein.
# The PHA-stimulated lymphocytes were suspended in media containing cell-free HIV, and were incubated overnight (about 18 hours). The cells were thereafter pelleted resuspended in a growth medium as pharmacologically acceptable carrier containing one of the above compounds at a 10 uM concentration, or with no added compound as a control, and plated at 10^5 cells per microculture; the medium was also supplemented with interleukin-2. The release of virus into the supernate was measured by ELISA at 4, 8 and 12 days, post-inoculation. Each microculture plate also contained ten virus-free cultures that served as further controls. Ten cell cultures were used for each compound.
# Cultures were scored positive if the optical density in the ELISA (OD490) was greater than two standard deviations above the readings for the virus-free cultures. This method is adapted from that of McDougal et al. (1985) J. Immunol. 135:3151.
# [3] = acid conditions; cited from earlier work
# [4] = tested on: deoxycytidine kinase and adenosine kinase deficient CEM T cells (clone AraC-8DM10-5); format: in vitro ADME, human; conditions: 3 uM, 4 hours
# Experimental: ^1 Human CEM T cells, or variants deficient in either deoxycytidine
# kinase, or deoxycytidine kinase plus adenosine kinase, were incubated at
# density of 5 × 10^7 cells/ml in medium containing 3 uM [8^3
# H2-chloro-2',3dideoxyadenosine. After 4 hours, the nucleotides in the
# methanolsoluble extracts were determined after separation by HPLC, as
# described in the Materials and Methods.
# The human T lymphoblastoid cell line, CCRF-CEM, and mutants deficient in either deoxycytidine kinase (clone AraC-8D), or deoxycytidine kinase plus adenosine kinase (clone AraC-8DM10-5) were obtained and propagated as described previously [Foley et al., (1965) Cancer, 18:552-529 and Hershfield et al., (1982) J. Biol. Chem., 257:6380-6386]. For metabolic studies, the cells were cultured in RPMI 1640 medium supplemented with 2 mM L-glutamine and 10 percent fetal bovine serum at a density of 2×10^7 cells/ml in the presence of radiolabelled dideoxynucleosides, as indicated earlier. Some cultures were pre-incubatedfor 30 minutes either with 5 uM 2'-deoxycoformycin or 50 uM coformycin. After 4 hours of incubation the cells were harvested by centrifugation.
# The cell pellets were washed with Hank's balanced salt solution at 4 degrees C., and extracted with 1 ml 60 percent methanol/water at -20 degrees C. for 10 minutes. Initial studies included 2',3'-dideoxyadenosine5'-triphosphate as an internal recovery marker. The nucleotides were fractionated by high performance liquid chromatography on an Whatman Partisil-10 SAX column, applying a gradient of zero to 100 percent buffer B in buffer A. Buffer A was 7 mM potassium phosphate pH 3.4. Buffer B was 0.5 M potassium phosphate, pH 3.4, one M KCl. The flow rate was 1.5 ml/minute, 1 minute fractions were collected. Buffer A was used alone for the first ten fractions after which elution with Buffer B began and was continued through fraction thirty, after which the eluting buffer was completely Buffer B. The nucleoside was eluted by about fraction six. The monophosphate eluted between about fractions fifteen and eighteen, the diphosphate between about fractions twenty-seven and thirty-two, and the triphosphate eluted between about fractions fifty-one and about sixty-five.
SMILES,Relative Efficiency (ratio of Vmax/Km) ([1]; relative efficiency of deamination),inhibition of p24 (gag) production from MDM cells (HIV in MDM cells),CC50 (uninfected ATH8 cells),EC50 (HIV in ATH8 cells),positive cultures on day 4 [2],positive cultures on day 8 [2],positive cultures on day 12 [2],rate of acid hydrolysis relative to adenosine [3],Relative Efficiency (ratio of Vmax/Km) [1],"Nucleotide Formed, Diphosphate [4]","Nucleotide Formed, Monophosphate [4]","Nucleotide Formed, Triphosphate [4]"
"Nc1ncnc2c1ncn2[C@H]1CC[C@@H](CO)O1 [2',3'-dideoxyadenosine, reference compound]",3.52,none of those compounds provided any inhibition,> 500000 nM,2700 nM,no positives,100%,100%,"about 40,000 times faster",–,–,–,–
"Nc1nc(Cl)nc2c1ncn2[C@H]1CC[C@@H](CO)O1 [2-chloro-2',3'-dideoxyadenosine]",–,–,–,–,–,–,–,–,0.04,0.7 pmols/10^8 cells/4 hrs,0.9 pmols/10^8 cells/4 hrs,2.5 pmols/10^8 cells/4 hrs

# — patent publication US4997926A, “Deaminase-stable anti-retroviral 2-halo-2',3'-dideoxy” (Scripps Clinic and Research Foundation, priority 1987, dated 1991)
